In assay [1] the target is Mitogen-activated protein kinase 1 (Homo sapiens, UniProt P28482). Briefly: Selectivity interaction (SelectScreen profiling (Invitrogen)) EUB0000607a MAPK1. The note with it: at 2 µM.
Assay [2] addresses Serine/threonine-protein kinase SIK1 (Homo sapiens) (UniProt P57059). Briefly: Selectivity interaction (KinomeScan (DiscoverX)) EUB0000607a SIK1. The note with it: at 10 µM.
The target of assay [3] is T1, Serine/threonine-protein kinase BRSK1 (Homo sapiens) (UniProt Q8TDC3).
T1 sequence (whole entry): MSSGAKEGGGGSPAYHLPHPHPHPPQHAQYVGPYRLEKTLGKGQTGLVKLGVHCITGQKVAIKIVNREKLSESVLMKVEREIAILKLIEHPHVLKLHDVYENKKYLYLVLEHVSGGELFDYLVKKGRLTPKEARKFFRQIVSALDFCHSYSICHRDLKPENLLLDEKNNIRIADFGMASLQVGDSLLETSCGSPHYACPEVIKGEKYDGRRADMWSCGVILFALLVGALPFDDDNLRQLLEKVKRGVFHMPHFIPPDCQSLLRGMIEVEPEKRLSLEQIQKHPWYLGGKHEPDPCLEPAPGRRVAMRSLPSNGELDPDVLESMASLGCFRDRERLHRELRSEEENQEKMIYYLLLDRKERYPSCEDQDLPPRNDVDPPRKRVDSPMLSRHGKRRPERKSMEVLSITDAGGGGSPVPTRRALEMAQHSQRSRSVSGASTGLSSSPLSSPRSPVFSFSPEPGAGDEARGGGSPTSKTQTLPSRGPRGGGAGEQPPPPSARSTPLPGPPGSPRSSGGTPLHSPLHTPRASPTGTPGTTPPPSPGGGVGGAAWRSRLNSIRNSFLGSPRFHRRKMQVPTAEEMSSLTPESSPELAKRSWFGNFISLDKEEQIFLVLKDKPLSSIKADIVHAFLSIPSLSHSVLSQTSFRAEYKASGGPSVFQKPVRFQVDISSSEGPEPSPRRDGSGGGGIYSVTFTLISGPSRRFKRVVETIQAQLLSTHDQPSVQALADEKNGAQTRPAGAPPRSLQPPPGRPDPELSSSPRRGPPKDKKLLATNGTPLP
The conditions noted are these: at 10 µM.

The target of assay [4] is Serine/threonine-protein kinase PLK2 (Homo sapiens, UniProt Q9NYY3). The assay can be described thus: Selectivity interaction (KinomeScan (DiscoverX)) EUB0000229b PLK2. The note with it: at 10 µM.
Assay [5] concerns the target Casein kinase I isoform gamma-1 (Homo sapiens) (UniProt Q9HCP0). The assay can be described thus: Selectivity interaction (KinomeScan (DiscoverX)) EUB0000655a CSNK1G1. The conditions noted are these: at 10 µM.
In assay [6] the target is T2, Mitogen-activated protein kinase kinase kinase 13 (Homo sapiens) (UniProt O43283).
T2 sequence (whole entry): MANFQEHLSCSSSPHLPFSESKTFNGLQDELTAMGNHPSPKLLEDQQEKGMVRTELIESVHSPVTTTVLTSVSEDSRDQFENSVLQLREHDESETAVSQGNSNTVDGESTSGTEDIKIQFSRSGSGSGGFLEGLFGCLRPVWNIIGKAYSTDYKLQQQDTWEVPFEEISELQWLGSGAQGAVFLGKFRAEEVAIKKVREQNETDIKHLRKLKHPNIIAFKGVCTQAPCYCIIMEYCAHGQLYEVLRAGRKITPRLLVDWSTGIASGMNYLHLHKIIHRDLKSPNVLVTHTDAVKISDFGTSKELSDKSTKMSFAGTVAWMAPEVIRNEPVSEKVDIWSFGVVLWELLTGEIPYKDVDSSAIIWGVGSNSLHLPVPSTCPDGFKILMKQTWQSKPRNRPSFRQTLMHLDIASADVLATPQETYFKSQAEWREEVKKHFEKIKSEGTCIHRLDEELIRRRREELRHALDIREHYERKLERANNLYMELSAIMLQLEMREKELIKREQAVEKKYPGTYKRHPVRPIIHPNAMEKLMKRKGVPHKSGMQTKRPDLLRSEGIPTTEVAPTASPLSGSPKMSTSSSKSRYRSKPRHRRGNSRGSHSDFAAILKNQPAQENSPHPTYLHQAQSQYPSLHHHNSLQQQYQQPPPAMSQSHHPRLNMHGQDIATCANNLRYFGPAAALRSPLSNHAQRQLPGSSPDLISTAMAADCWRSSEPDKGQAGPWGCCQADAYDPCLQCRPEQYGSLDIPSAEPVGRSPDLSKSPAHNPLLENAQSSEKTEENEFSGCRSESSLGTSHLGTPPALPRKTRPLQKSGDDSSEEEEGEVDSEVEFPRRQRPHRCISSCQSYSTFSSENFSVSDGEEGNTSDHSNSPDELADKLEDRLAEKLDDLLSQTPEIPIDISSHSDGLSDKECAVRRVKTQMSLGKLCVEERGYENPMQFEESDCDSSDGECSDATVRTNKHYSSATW
The assay can be described thus: Selectivity interaction (KinomeScan (DiscoverX)) EUB0001619a MAP3K13. The conditions noted are these: at 1 µM.

Assay [7] addresses Phosphatidylinositol 4,5-bisphosphate 3-kinase catalytic subunit gamma isoform (Homo sapiens) (UniProt P48736). The assay can be described thus: Selectivity interaction (KinomeScan (DiscoverX)) EUB0000877a PIK3CG. The conditions noted are these: at 10 µM.
In assay [8] the target is T3, Dual specificity mitogen-activated protein kinase kinase 6 (Homo sapiens) (UniProt P52564).
T3 sequence (whole entry): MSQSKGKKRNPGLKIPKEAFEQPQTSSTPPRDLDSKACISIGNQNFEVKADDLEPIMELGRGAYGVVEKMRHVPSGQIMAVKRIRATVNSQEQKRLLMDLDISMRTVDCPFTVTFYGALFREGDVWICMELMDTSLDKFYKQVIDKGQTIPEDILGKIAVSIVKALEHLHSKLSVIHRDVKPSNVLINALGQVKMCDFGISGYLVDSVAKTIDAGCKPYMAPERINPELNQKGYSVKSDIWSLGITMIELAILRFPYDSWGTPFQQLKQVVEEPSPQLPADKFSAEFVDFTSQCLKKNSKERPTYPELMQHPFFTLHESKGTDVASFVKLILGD
The assay can be described thus: Selectivity interaction (Kinase panel (Invitrogen)) EUB0000639a MAP2K6. The note with it: at 200 nM.

Assay [9] has as its target Phosphatidylinositol 4-kinase beta (Homo sapiens, UniProt Q9UBF8). The assay can be described thus: Selectivity interaction (ProQinase) EUB0000171b PI4KB.
Assay [10] has as its target Voltage-dependent N-type calcium channel subunit alpha-1B (Homo sapiens) (UniProt Q00975). The assay can be described thus: Selectivity interaction (Eurofins CEREP Diversity Profile (receptors and ion channels)) EUB0000279b CACNA1B. The conditions noted are these: at 10 µM.
For assay [11], the target named is Calcium/calmodulin-dependent protein kinase type 1 (Homo sapiens) (UniProt Q14012). The assay can be described thus: Selectivity interaction (KinomeScan (DiscoverX)) EUB0000092b CAMK1. The conditions noted are these: at 10 µM.

Molecules are shown by their SMILES.

The text below walks through data of ChEMBL document CHEMBL5465560, “Selectivity Literature for EUbOPEN Chemogenomic Library” (2024).

Chain of Phosphatidylinositol 4-kinase beta (Q9UBF8 2-816 limits assumed): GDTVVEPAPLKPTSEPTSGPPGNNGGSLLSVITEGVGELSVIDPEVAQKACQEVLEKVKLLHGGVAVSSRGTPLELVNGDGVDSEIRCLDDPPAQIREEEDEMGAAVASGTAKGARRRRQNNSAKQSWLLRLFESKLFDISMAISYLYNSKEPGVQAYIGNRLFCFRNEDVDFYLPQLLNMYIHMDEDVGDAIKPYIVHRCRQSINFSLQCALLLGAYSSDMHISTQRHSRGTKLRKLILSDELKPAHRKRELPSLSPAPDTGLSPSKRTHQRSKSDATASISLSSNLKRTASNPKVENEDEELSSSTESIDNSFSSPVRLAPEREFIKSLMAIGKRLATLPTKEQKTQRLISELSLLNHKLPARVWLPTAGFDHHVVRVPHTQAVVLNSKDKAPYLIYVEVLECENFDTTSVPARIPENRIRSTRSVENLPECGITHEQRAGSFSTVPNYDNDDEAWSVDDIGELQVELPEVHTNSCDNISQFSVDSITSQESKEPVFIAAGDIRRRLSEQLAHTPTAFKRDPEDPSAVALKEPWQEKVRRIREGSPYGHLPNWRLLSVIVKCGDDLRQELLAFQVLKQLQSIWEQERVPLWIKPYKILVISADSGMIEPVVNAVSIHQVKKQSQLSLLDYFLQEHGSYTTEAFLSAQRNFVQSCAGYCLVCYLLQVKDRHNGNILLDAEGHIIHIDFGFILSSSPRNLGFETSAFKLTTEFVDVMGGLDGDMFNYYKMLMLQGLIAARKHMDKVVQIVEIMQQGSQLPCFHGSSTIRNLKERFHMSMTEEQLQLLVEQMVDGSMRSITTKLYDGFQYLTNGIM
Chain of Calcium/calmodulin-dependent protein kinase type 1 (Homo sapiens) (Q14012 whole entry, looked up): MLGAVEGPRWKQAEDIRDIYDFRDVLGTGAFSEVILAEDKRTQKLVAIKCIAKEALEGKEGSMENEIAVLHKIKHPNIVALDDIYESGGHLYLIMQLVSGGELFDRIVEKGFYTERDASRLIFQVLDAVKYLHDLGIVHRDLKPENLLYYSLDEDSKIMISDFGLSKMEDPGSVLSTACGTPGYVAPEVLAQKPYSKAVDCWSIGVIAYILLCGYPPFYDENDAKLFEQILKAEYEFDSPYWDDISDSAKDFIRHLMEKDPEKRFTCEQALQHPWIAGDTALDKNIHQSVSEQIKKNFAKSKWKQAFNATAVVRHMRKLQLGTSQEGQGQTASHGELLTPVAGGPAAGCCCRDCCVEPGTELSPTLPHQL
Chain of Casein kinase I isoform gamma-1 (Homo sapiens) (Q9HCP0 whole entry, looked up, canonical isoform): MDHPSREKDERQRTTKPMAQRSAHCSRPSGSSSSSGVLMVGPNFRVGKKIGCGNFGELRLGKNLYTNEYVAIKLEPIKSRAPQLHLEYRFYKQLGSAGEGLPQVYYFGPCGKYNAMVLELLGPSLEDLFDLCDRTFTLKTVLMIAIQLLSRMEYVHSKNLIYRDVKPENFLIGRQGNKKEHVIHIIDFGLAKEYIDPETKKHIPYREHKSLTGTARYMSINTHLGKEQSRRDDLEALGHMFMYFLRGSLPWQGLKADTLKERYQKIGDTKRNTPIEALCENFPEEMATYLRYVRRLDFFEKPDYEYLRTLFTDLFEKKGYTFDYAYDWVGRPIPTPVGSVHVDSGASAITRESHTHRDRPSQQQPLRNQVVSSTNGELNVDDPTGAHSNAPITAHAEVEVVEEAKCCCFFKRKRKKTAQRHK
Chain of Voltage-dependent N-type calcium channel subunit alpha-1B (Homo sapiens) (Q00975 whole entry, looked up): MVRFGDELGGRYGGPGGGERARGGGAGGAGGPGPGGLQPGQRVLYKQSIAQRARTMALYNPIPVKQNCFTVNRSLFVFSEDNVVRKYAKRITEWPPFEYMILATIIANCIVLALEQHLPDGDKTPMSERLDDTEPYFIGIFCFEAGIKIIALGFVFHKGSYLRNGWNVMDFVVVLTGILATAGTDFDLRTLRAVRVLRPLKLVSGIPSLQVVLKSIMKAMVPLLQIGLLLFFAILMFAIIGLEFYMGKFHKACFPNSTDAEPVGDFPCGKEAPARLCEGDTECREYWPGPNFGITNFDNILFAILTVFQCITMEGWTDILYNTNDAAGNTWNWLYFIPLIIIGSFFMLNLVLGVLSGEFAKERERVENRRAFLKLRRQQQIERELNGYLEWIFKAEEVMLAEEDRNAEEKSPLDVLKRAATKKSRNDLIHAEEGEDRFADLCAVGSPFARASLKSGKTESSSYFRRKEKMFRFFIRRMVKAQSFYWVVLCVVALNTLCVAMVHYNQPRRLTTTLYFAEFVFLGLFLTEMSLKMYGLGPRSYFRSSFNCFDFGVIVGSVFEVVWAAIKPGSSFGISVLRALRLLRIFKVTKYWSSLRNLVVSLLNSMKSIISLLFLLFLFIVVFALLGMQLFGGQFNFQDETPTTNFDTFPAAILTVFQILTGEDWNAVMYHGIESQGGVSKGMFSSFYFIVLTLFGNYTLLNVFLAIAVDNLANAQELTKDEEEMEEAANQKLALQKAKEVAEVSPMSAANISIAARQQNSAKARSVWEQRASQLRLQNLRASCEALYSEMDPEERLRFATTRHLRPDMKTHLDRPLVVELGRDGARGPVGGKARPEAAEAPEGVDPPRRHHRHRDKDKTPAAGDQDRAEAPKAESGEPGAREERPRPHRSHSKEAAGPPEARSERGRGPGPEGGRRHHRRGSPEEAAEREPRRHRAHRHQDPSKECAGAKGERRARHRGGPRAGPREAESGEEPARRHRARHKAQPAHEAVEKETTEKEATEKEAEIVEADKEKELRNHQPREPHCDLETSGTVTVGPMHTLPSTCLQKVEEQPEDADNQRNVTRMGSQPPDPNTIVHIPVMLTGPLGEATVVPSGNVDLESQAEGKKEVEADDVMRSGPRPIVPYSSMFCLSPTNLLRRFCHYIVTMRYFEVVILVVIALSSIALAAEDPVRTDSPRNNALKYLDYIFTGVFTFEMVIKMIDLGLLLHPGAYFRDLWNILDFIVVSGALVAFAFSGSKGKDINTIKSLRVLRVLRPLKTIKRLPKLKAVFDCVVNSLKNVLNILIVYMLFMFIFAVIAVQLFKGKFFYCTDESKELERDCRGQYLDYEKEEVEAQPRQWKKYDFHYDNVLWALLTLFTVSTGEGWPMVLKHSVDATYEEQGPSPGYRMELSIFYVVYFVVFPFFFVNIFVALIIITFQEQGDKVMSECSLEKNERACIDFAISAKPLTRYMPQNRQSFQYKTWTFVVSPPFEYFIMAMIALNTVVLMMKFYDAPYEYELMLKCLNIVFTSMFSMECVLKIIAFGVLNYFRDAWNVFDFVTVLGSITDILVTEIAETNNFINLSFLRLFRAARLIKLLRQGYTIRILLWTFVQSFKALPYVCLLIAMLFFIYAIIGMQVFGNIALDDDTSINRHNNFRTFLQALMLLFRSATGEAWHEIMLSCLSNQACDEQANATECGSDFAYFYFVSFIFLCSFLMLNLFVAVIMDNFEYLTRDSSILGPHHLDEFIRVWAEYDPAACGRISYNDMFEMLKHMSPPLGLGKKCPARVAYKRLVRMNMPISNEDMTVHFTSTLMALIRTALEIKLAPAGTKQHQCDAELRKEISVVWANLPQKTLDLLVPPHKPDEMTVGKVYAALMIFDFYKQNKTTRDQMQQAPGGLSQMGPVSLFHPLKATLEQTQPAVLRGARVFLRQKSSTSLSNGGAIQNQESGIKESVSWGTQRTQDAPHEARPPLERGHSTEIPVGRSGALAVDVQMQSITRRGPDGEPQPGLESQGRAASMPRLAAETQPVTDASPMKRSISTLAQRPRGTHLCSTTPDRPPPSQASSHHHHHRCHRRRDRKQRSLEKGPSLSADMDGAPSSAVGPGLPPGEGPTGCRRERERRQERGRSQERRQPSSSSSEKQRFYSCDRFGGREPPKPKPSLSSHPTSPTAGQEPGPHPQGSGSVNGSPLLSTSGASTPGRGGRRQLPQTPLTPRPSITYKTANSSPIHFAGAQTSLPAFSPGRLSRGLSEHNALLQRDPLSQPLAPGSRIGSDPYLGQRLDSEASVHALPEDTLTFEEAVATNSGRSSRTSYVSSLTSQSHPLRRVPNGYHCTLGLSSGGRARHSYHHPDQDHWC
Chain of Serine/threonine-protein kinase PLK2 (Q9NYY3 whole entry, looked up, canonical isoform): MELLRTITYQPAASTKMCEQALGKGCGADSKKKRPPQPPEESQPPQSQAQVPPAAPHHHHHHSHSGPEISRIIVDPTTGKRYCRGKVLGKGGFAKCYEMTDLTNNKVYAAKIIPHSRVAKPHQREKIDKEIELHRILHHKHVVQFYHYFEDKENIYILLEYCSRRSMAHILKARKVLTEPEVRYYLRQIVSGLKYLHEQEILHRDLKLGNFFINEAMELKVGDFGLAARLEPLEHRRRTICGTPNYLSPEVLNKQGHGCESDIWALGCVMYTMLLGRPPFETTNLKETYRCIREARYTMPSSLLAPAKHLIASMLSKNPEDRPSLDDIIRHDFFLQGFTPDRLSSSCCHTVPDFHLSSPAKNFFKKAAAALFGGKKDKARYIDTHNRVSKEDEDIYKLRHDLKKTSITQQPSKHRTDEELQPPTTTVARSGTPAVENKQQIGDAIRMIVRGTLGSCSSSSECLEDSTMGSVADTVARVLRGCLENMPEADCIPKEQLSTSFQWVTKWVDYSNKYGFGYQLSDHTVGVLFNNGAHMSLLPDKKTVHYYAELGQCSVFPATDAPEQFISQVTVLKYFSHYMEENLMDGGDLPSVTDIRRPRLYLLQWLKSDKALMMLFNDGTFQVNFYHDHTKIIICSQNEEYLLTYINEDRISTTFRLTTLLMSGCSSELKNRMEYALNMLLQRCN
Chain of Mitogen-activated protein kinase 1 (P28482 whole entry): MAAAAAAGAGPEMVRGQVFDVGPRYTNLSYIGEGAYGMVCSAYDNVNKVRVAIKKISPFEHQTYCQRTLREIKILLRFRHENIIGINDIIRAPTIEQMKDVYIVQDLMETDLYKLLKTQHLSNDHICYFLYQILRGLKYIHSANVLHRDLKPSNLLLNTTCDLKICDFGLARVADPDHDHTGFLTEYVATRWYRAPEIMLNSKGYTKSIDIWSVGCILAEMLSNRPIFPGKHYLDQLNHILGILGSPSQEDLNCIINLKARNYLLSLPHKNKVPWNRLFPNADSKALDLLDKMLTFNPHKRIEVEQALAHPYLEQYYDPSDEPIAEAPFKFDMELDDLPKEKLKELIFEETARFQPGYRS

For the compound `CNC(=O)Nc1ccc(-c2nc(N3CC4CCC(C3)O4)c3cnn(C4CCC5(CC4)OCCO5)c3n2)cc1`, the % of inhibition in [1] was 0%. In [2], this compound came in with a % of control of 86%. In the case of `Cc1cc([C@@H](C)Nc2ccccc2C(=O)O)c2nc(N3CCOCC3)cc(=O)n2c1` [AZD-6482], the % of control in assay [3] was 99%. For the compound `COc1cc(N(C)c2ccnc3ccc(C(F)(F)F)cc23)cc(OC)c1OC`, the % binding in [4] was 88%. As for `CN(C)CCOc1ccc(-c2nc(-c3ccncc3)c(-c3ccc4c(c3)CC/C4=N\O)[nH]2)cc1`, the % of control in [5] turned out to be 81%.

Compound `N#Cc1cccc(-c2c[nH]c3ncnc(N4CCOCC4)c23)c1` yielded a % of control in [6] of 62%. As to `CCC(=O)N1CC[C@H](Nc2ncnc3c2CN(c2cnc(OC)c(C(F)(F)F)c2)CC3)C1` [LENIOLISIB], the % of inhibition in assay [7] is 98%. `CC[C@@H]1[C@H](F)C(=O)N[C@@H]1COc1nccc2cc(C(N)=O)c(OC)cc12` [ZIMLOVISERTIB] displayed a % of inhibition in assay [8] of 4.3%.

As for `C=CC(=O)Nc1cccc(C(=O)Nc2ccc(Nc3cc(-c4[nH]c(SC)nc4C)ccn3)cc2)c1`, the % of control in [9] (at 1 µM) stood at 101%; in assay [9] (at 5 µM), 79%.

With `CC(=O)c1cc(-c2ccccc2OCC2CC2)c2ncccn12`, the % of control in assay [10] was determined as 115%.

For `CCC(=O)N1CCN(c2ccc(-n3c(=O)ccc4cnc5ccc(-c6cnc7ccccc7c6)cc5c43)cc2C(F)(F)F)CC1`, in assay [11], the % of control came to 50%.
